Measurements from patent US12168003B2, “Selective inhibition of T follicular helper cells for treatment of autoimmune disorders” (priority 2019, dated 2024).

Columns and labels:
TH1 and TH17 cells = test: S. aureus sub-dermal ear pinnae infection model; type: in vivo, mouse
Protocol: S. aureus subspecies Rosenbach (ATCC 25923) was grown overnight in TSB broth (Corning). Following quantification, 1×10^8 CFU of S. aureus in 100 μL were injected subdermal in the base of the ear pinnae. On days 0 through 7, mice were treated daily with i.p. 25 mg/kg 4EGI-1 or vehicle. On day 8, mice were euthanized and the whole infected ear was collected along with the cervical lymph node (CLN) and blood. Blood was allowed to clot at room temperature, spun at 2,000×g for 30 minutes, and serum was collected and frozen until analysis. Ear thickness was measured with a digital caliper on day 8.
Spleens, draining lymph nodes, and brains were dissociated with the plunger-end of a syringe and passed through a 70 μm nylon filter. Splenocytes were subject to RBC lysis with ACK (Ammonium-Chloride-Potassium). Ears were subject to mechanical dissociation with scissors prior to incubation in 1 mL PBS in a 48-well plate with 100 μg/mL Liberase TL and 20 μg/mL DNase I for 1.5 hours at 37° C. Following incubation, cells were further dissociated by passing through a syringe, quenched with PBS+2% FCS, and filtered through a 70 μm nylon filter. Lungs were mechanically dissociated with a razor blade and incubated in a 6 cm dish with 5 mLs RPMI containing 250 μg/mL collagenase, 50 μg/mL Liberase TL, 1 mg/mL hyaluronidase, and 200 μg/mL DNase I for 30 minutes. Following incubation, cells quenched with PBS+2% FCS, and filtered through a 70 μm nylon filter. Ear and lung cells were subject to lymphocyte isolation using a gradient (Lymphocyte Separation Medium; Cellgro). Vertebral columns were flushed with PBS through a 19-gauge needle to remove intact spinal cords. Spinal cords were subject to mechanical dissociation with scissors and incubation in 1 mL PBS with 200 μg/mL DNase I and 50 μg/mL Liberase TL for 30 minutes at 37° C. Following incubation, cells were quenched with PBS+2% FCS and filtered through a 70 μm nylon filter.
Single cell suspensions of noted tissues were resuspended in T cell media with 1× PMA/Ionomycin (cell activation cocktail; BioLegend®) and 1× brefeldin A (BioLegend®) for 5-6 hours at 37° C. Following stimulation, cells were incubated with a live/dead viability marker and extracellular stain prior to fix and permeabilization with Fixation/Permeabilization Solution kit (BD Biosciences) according to manufacturer's instructions to detect intracellular cytokines IL-17A, IFN-γ, or IL-13. Concentration and clones of flow cytometry antibodies used for staining detailed in Table 2.
For quantification of OVA-specific IgG1, high-binding 96-well plates (Costar) were coated with 10 μg/mL OVA protein. For S. aureus-specific IgG1, plates were coated with heat-killed S. aureus (heat-killed at 80° C. for 30 min). For total IgE, plates were coated with 2 μg/mL rat anti-mouse IgE (Southern Biotech). Following overnight incubation at 4° C., plates were blocked with 1% BSA for 30 min at 37° C. After blocking, serum (diluted 1/20 initially then 1/2 down the plate) was incubated at 37° C. for 2 hours, plates were washed 3 times in PBS and then incubated with 1:1000 anti-mouse IgG1-HRP (Southern Biotech) or anti-mouse IgE-HRP (Southern Biotech) for 1 hour at 37° C. Plates were washed 3 times in PBS and incubated with TMB substrate. Following development, TMB Stop Solution (BioLegend®) was added and plates were read at […].

[1] = tested on: CD4+ T cells from mice immunized with OVA/Alum; test: In vitro treatment of mouse splenocytes with 4EGI-1 and SUnSET assay; type: cell-based
Protocol: Mice were immunized with 100 μg OVA/Alum and 7 days following, spleens were harvested and single-cell suspensions were generated. Splenocytes were incubated in mouse T cell media (detailed in Silencing of eIF4E in OT2 T cells by lentivirus transduction) with 0-25 μM 4EGI-1 for 4 hours at 37° C. Cells were stained with a live/dead viability marker and then for extracellular expression of CD4, CXCR5, PD-1, or ICOS or intranuclear expression of BCL6. For the SuNSET assay, cells from above were incubated 37° C. with 10 μg/mL puromycin for 10 minutes. Control samples were incubated with puromycin and 100 μg/mL cycloheximide. Cells were incubated with a live/dead viability marker and extracellular stain prior to fixation and permeabilization (BD Biosciences Fixation/Permeabilization Solution) and intracellular staining with anti-puromycin followed by anti-mouse IgG2a antibody conjugated to Alexa Fluor 488.

[2] = 4EGI-1 up to 25 μM, 4 hours, mouse CD4+ T cells
[3] = 10-25 μM 4EGI-1, 4 hours, mouse CD4+ lymphocytes in culture

O=C(O)C(Cc1ccccc1[N+](=O)[O-])=NNc1nc(-c2ccc(Cl)c(Cl)c2)cs1 (mixture of isomers) [4EGI-1]
differentiation or effector function of TH1 cells (T-bet+ or IFN-γ+) in the skin (TH1 and TH17 cells; 25 mg/kg daily i.p., day 8): no effect | differentiation or effector function of TH17 cells (RORγT+ or IL17A+) in the skin (TH1 and TH17 cells; 25 mg/kg daily i.p., day 8): no effect | general skin inflammation (ear thickness and skin neutrophil levels) (TH1 and TH17 cells; 25 mg/kg daily i.p., day 8): no effect | formation of GC B cells in draining lymph nodes (TH1 and TH17 cells; cervical lymph nodes, day 8): strongly reduced | formation of TFH cells in draining lymph nodes (TH1 and TH17 cells; cervical lymph nodes, day 8): strongly reduced | secretion of class-switched immunoglobulins (TH1 and TH17 cells; serum S. aureus-specific IgG1, day 8): strongly reduced | levels of CXCR5 protein [1, 2]: unchanged | levels of ICOS protein [1, 2]: unchanged | levels of PD-1 protein [1, 2]: unchanged | reduction of BCL6 protein levels [1, 2]: ~3 fold | cell viability [1, 3]: without reducing | reduction of protein synthesis (SUnSET) [1, 3]: 3-4 fold
